In assay [1] the target is CTX-M-14 (Escherichia coli, UniProt Q9L5C7). Nature of the assay: Inhibition of nitrocefin cleavage by purified CTX-M-14. It counts as biochemical. The following applies: nitrocefin reporter substrate; 10 min preincubation at room temperature; read-out: Ki (CTX-M-14, NCF). As to the method: (§1) Ki values of inhibition of purified class A, C and D enzymes were determined spectrophotometrically using nitrocefin as reporter substrate. Purified enzymes were mixed with various concentrations of inhibitors in reaction buffer and incubated for 10 min at room temperature. Nitrocefin was added and substrate cleavage profiles were recorded at 490 nm every 10 sec for 10 min.

Assay [2] addresses KPC-2 (Klebsiella pneumoniae, UniProt Q9F663). Description: Inhibition of nitrocefin cleavage by purified KPC-2. The following applies: nitrocefin reporter substrate; 10 min preincubation at room temperature; read-out: Ki (KPC-2, NCF). It counts as biochemical. The procedure: (§2) Ki values of inhibition of purified class A, C and D enzymes were determined spectrophotometrically using nitrocefin as reporter substrate. Purified enzymes were mixed with various concentrations of inhibitors in reaction buffer and incubated for 10 min at room temperature. Nitrocefin was added and substrate cleavage profiles were recorded at 490 nm every 10 sec for 10 min. These experiments confirmed that the described compounds are inhibitors with a broad-spectrum of activity towards various β-lactamases.

For assay [3], the target named is P99 (Enterobacter cloacae, UniProt P05364). Nature of the assay: biochemical. The following applies: nitrocefin reporter substrate; 10 min preincubation at room temperature; read-out: Ki (P99, NCF). As to the method:
as §1

In assay [4] the target is Pa-AmpC (Pseudomonas aeruginosa, UniProt P24735). Description: biochemical. The following applies: nitrocefin reporter substrate; 10 min preincubation at room temperature; read-out: Ki (Pa-AmpC, NCF). The procedure:
as §1

Assay [5] addresses OXA-48 (Klebsiella pneumoniae, UniProt Q6XEC0). Description: Inhibition of nitrocefin cleavage by purified OXA-48. It counts as biochemical. The conditions noted are these: nitrocefin reporter substrate; 10 min preincubation at room temperature; read-out: Ki (OXA-48, NCF). As to the method:
as §2

Assay [6] deals with OXA-23 (Acinetobacter baumannii, UniProt Q9L4P2). Description: Inhibition of nitrocefin cleavage by purified OXA-23. It counts as biochemical. The conditions noted are these: nitrocefin reporter substrate; 10 min preincubation at room temperature; read-out: Ki (OXA-23, NCF). As to the method:
as §2

The target of assay [7] is VIM-1 (Pseudomonas aeruginosa, UniProt A0A0F7KYQ8). Description: Inhibition of nitrocefin cleavage by purified VIM-1. It counts as biochemical. The following applies: nitrocefin reporter substrate; 10 min preincubation at room temperature; read-out: Ki (VIM-1, NCF).
In assay [8] the target is NDM-1 (Klebsiella pneumoniae, UniProt C7C422). Nature of the assay: Inhibition of imipenem cleavage by purified NDM-1. The following applies: imipenem reporter substrate; 37° C.; read-out: Ki (NDM-1, IMI). It counts as biochemical. As to the method: Purified enzymes were mixed with various concentrations of inhibitors in reaction buffer and incubated for 10 min at room temperature. Imipenem was added and substrate cleavage profiles were recorded at 294 nm every 30 seconds for 30 minutes at 37° C.

The target in assay [9] is IMP-1 (Serratia marcescens, UniProt P52699). Nature of the assay: Inhibition of imipenem cleavage by purified IMP-1. It is filed as biochemical. The conditions noted are these: imipenem reporter substrate; 37° C.; read-out: Ki (IMP-1, IMI). As to the method:
Ki values of inhibition of purified class B enzymes NDM-1 and IMP-1 were determined spectrophotometrically using imipenem as reporter substrate. Purified enzymes were mixed with various concentrations of inhibitors in reaction buffer and incubated for 10 min at room temperature. Imipenem was added and substrate cleavage profiles were recorded at 294 nm every 30 seconds for 30 minutes at 37° C. These experiments further confirmed that the described compounds have the ability to inhibit carbapenemase activity of metallo-beta-lactamases.

The subject of assay [10] is PAM1032/KPC-2 (overexpressed MexAB-OprM). Description: Biapenem potentiation (MPC64) in PAM1032/KPC-2. It counts as cell-based, Pseudomonas aeruginosa. The conditions noted are these: BLI potency to decrease biapenem MIC 64-fold, from 32 to 0.5 μg/ml; efflux proficient strain. Details: PAM1032/KPC-2 Biapenem MPC64: unit not given here. As to the method: (§3) Efflux of BLIs from Pseudomonas aeruginosa by the MexAB-OprM efflux pump was also evaluated. The plasmid expressing the gene encoding KPC-2 was introduced into two strains of P. aeruginosa, PAM1032 and PAM1154 that overexpressed or lacked MexAB-OprM, respectively. Due to expression of KPC-2 both strains became resistant to biapenem. […] Potency of BLIs to potentiate biapenem in these strains was determined. […] The ratio of MPC64 values for each BLI in PAM1032/KPC-2 (efflux proficient) and PAM1154/KPC-2 (efflux deficient) was determined to generate the Efflux Index (EI) as shown in Table 8.

Assay [11] concerns PAM1154/KPC-2 (lacked MexAB-OprM). Nature of the assay: Biapenem potentiation (MPC64) in PAM1154/KPC-2. The following applies: BLI potency to decrease biapenem MIC 64-fold, from 32 to 0.5 μg/ml; efflux deficient strain. Details: PAM1154/KPC-2 Biapenem MPC64: unit not given here. It counts as cell-based, Pseudomonas aeruginosa. The procedure:
as §3

A value given as a limit tells only on which side of the number the result lay.

Sequence of CTX-M-14 (Q9L5C7 29-291, species assumed): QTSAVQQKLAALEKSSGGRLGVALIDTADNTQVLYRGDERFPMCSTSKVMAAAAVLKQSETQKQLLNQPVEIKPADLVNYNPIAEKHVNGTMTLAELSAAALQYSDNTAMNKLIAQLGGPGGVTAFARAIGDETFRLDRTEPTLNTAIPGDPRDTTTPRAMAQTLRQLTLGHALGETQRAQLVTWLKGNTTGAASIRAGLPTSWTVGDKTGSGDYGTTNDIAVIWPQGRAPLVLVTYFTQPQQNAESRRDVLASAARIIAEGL
Sequence of Pa-AmpC (P24735 27-397): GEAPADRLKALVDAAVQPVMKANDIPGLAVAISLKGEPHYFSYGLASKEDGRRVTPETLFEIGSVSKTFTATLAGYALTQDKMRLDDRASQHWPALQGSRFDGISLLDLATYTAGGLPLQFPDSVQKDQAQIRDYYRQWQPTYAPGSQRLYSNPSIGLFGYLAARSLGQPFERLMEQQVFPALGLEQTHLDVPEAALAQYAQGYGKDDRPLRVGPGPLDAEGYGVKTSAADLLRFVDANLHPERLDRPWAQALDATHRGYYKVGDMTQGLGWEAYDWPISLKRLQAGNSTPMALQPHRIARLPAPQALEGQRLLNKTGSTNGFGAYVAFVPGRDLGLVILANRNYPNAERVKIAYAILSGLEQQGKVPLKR
Sequence of IMP-1 (P52699 19-246, looked up, species assumed): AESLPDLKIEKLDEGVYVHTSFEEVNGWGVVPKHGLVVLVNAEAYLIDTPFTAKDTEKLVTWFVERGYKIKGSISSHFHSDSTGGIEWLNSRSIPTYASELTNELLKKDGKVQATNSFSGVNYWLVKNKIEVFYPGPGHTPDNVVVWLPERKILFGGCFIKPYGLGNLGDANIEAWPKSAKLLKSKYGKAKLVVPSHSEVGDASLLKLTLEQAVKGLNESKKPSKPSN
Sequence of P99 (P05364 21-381): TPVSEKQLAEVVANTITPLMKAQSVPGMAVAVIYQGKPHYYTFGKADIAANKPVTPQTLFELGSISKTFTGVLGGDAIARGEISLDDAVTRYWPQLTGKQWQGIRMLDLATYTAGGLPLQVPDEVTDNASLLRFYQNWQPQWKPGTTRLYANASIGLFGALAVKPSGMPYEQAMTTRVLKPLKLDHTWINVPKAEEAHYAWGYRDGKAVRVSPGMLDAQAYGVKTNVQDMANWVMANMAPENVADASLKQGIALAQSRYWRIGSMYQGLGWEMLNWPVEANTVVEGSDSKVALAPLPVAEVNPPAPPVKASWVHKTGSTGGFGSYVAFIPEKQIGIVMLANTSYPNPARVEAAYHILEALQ
Sequence of KPC-2 (Q9F663 25-293 limits assumed): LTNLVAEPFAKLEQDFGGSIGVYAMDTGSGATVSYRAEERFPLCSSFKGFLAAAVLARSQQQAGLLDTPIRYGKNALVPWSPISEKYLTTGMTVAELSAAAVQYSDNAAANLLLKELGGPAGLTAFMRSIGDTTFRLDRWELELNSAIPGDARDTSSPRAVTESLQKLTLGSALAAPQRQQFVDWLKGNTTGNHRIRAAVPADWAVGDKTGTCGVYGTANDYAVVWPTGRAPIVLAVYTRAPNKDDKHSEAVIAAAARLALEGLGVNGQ
Sequence of NDM-1 (C7C422 29-270, looked up, species assumed): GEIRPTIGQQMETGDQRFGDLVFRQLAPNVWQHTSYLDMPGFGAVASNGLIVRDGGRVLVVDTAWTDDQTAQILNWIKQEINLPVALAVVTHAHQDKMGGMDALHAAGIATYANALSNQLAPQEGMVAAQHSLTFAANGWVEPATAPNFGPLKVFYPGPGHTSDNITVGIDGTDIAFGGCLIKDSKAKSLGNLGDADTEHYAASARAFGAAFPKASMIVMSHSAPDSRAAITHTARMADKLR
Sequence of OXA-48 (Q6XEC0 23-265, looked up): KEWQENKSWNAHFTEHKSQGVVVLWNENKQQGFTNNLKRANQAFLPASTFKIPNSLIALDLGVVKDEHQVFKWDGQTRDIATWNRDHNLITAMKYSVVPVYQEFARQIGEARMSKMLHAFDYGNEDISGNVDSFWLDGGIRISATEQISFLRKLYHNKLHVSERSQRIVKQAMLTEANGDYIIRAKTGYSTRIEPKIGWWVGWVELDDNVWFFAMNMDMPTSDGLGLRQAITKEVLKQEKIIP
Sequence of OXA-23 (Q9L4P2 18-273): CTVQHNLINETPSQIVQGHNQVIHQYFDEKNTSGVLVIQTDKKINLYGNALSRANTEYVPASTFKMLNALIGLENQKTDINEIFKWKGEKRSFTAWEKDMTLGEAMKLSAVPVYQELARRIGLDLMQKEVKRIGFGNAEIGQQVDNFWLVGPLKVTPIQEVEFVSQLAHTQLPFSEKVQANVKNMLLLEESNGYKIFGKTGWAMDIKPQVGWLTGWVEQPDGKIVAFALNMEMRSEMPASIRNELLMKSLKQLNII

With `COc1ccc2c(c1C(=O)O)OB(O)C1CC21` (stereo not drawn) [Compound 1, 2-Hydroxy-5-methoxy-1a,7b-dihydro-1H-cyclopropa[c][1,2]benzoxaborinine-4-carboxylic acid], the Ki in assay [1], in assay [2], in assay [3], in assay [4], in [5] and in assay [6] was < 0.1 µM in each case. Further, the Ki in assay [7], in assay [8] and in assay [9] was < 0.1 µM in each case. In addition, the “PAM1032/KPC-2 Biapenem MPC64” value in assay [10] is recorded as 2.5. Also, the “PAM1154/KPC-2 Biapenem MPC64” value in assay [11] came out at 1.25.
With `COc1ccc2c(c1C(=O)O)OB(O)[C@H]1C[C@@H]21` [Compound 2, (1aS,7bR)-2-hydroxy-5-methoxy-1a,7b-dihydro-1H-cyclopropa[c][1,2]benzoxaborinine-4-carboxylic acid], the Ki in [1], in assay [2], in [3], in assay [4], in assay [5] and in assay [6] was < 0.1 µM throughout. Further, the values for the inhibition constant Ki in [7], in [8] and in [9] were 0.1 to 1 µM, 0.1 to 1 µM and > 1 µM, respectively. In addition, the “PAM1032/KPC-2 Biapenem MPC64” value in [10] was determined as 2.5. The “PAM1154/KPC-2 Biapenem MPC64” value in assay [11] is 1.25.
Turning to `COc1ccc2c(c1C(=O)O)OB(O)[C@@H]1C[C@H]21` [Compound 3, (1aR,7bS)-2-hydroxy-5-methoxy-1a,7b-dihydro-1H-cyclopropa[c][1,2]benzoxaborinine-4-carboxylic acid], the Ki in assay [1], in assay [2], in assay [3], in assay [4], in [5] and in assay [6] was < 0.1 µM in each case. The Ki in assay [7], in [8] and in [9] was < 0.1 µM in each case. Moreover, the “PAM1032/KPC-2 Biapenem MPC64” value in assay [10] was found to be 5. Moreover, in assay [11], the “PAM1154/KPC-2 Biapenem MPC64” value amounted to 2.5.
As for `COc1ccc2c(c1C(=O)O)OB(O)C1C2C1(F)F` (stereo not drawn) [Compound 5, 1,1-Difluoro-2-hydroxy-5-methoxy-1a,7b-dihydrocyclopropa[c][1,2]benzoxaborinine-4-carboxylic acid], the inhibitory constant (Ki) (usually the dissociation constant of the complex between target and ligand, obtained from inhibition or displacement) in assay [1] is < 0.1 µM; in [2], < 0.1 µM; in assay [3], 0.1 to 1 µM; in assay [4], > 1 µM; in [5], < 0.1 µM; in assay [6] it was < 0.1 µM. Also, the Ki in assay [7] is > 1 µM; in assay [8] it was 0.1 to 1 µM; in assay [9], > 1 µM. Moreover, the “PAM1032/KPC-2 Biapenem MPC64” value in assay [10] worked out at 20. Moreover, the “PAM1154/KPC-2 Biapenem MPC64” value in assay [11] is 10.
`COc1ccc2c(c1C(=O)O)OB(O)C=C2` [Compound 9, 2-Hydroxy-7-methoxy-1,2-benzoxaborinine-8-carboxylic acid]: the Ki in [2] is < 0.1 µM; in assay [3], < 0.1 µM; in assay [4], 0.1 to 1 µM; in assay [5], < 0.1 µM; in [6] it was < 0.1 µM; in assay [7] it was > 1 µM. In addition, the Ki in assay [8] and in assay [9] was > 1 µM throughout. Besides, the “PAM1032/KPC-2 Biapenem MPC64” value in [10] was >10. The “PAM1154/KPC-2 Biapenem MPC64” value in [11] is 1.25.
Take `O=C(O)c1cccc2c1OB(O)CC21CC1` [Compound 14, 4,4-dihydroxyspiro[5-oxa-4-boranuidabicyclo[4.4.0]deca-1(6),7,9-triene-2,1′-cyclopropane]-7-carboxylic acid]: the Ki in assay [1], in assay [2], in assay [3], in assay [4], in [5] and in [6] was < 0.1 µM throughout. The Ki was > 1 µM in assay [7], < 0.1 µM in assay [8] and > 1 µM in assay [9]. Further, in assay [10], the “PAM1032/KPC-2 Biapenem MPC64” value is 40. Also, in assay [11], the “PAM1154/KPC-2 Biapenem MPC64” value was determined as 1.25.
In the case of `O=C(O)c1c(F)ccc2c1OB(O)CC21CC1` [Compound 15, 8-fluoro-4,4-dihydroxy-spiro[5-oxa-4-boranuidabicyclo[4.4.0]deca-1(6),7,9-triene-2,1′-cyclopropane]-7-carboxylic acid], the Ki in assay [1], in assay [2], in [3], in assay [4], in assay [5] and in assay [6] was < 0.1 µM each time. Moreover, the inhibition constant (Ki) in [7] was > 1 µM; in assay [8] it was 0.1 to 1 µM; in assay [9] it was > 1 µM. The “PAM1032/KPC-2 Biapenem MPC64” value in [10] was determined as 5. In addition, in assay [11], the “PAM1154/KPC-2 Biapenem MPC64” value turned out to be 1.25.
As to `O=C(O)c1cccc2c1OB(O)[C@@H]1C[C@H]21` [Compound 16, (1aR,7bS)-2,2-dihydroxy-1a,7b-dihydro-1H-cyclopropa[c][1,2]benzoxaborinine-4-carboxylic acid], the Ki in [1], in [2], in assay [3], in [4], in assay [5] and in [6] was < 0.1 µM throughout. Also, the Ki in assay [7], in assay [8] and in assay [9] was < 0.1 µM in each case. Also, the “PAM1032/KPC-2 Biapenem MPC64” value in assay [10] is 1.25. In addition, the “PAM1154/KPC-2 Biapenem MPC64” value in assay [11] came to 0.3.
With `O=C(O)c1c(OCCF)ccc2c1OB(O)C1CC21` (stereo not drawn) [Compound 17, 5-(2-fluoroethoxy)-2,2-dihydroxy-1a,7b-dihydro-1H-cyclopropa[c][1,2]benzoxaborinine-4-carboxylic acid], the Ki in assay [1], in assay [2], in assay [3], in assay [4], in assay [5] and in assay [6] was < 0.1 µM in each case. Also, the inhibition constant Ki in assay [7], in assay [8] and in assay [9] was < 0.1 µM throughout. Besides, in assay [10], the “PAM1032/KPC-2 Biapenem MPC64” value amounted to 20. For the same molecule, the “PAM1154/KPC-2 Biapenem MPC64” value in assay [11] came out at 5.
With `O=C(O)c1cccc2c1OB(O)[C@H]1C[C@@H]21` [Compound 18, (1aS,7bR)-2,2-dihydroxy-1a,7b-dihydro-1H-cyclopropa[c][1,2]benzoxaborinine-4-carboxylic acid], the inhibition constant (Ki) is < 0.1 µM in assay [1]; < 0.1 µM in assay [2]; 0.1 to 1 µM in [3]; 0.1 to 1 µM in [4]; < 0.1 µM in [5]; 0.1 to 1 µM in assay [6]. Further, the Ki was 0.1 to 1 µM in assay [7], < 0.1 µM in assay [8] and > 1 µM in assay [9]. Further, the “PAM1032/KPC-2 Biapenem MPC64” value in [10] is on record as 5. The “PAM1154/KPC-2 Biapenem MPC64” value in assay [11] amounted to 0.3.
On to `O=C(O)c1c(F)c(F)cc2c1OB(O)C1CC21` (stereo not drawn) [Compound 19, 5,6-difluoro-2,2-dihydroxy-1a,7b-dihydro-1H-cyclopropa[c][1,2]benzoxaborinine-4-carboxylic acid], for which the inhibition constant Ki in [1], in assay [2], in [3], in [4], in [5] and in assay [6] was < 0.1 µM each time. Further, the figures for the Ki in [7], in [8] and in [9] were < 0.1 µM, 0.1 to 1 µM and > 1 µM, respectively. For the same molecule, the “PAM1032/KPC-2 Biapenem MPC64” value in assay [10] turned out to be 5. For the same molecule, the “PAM1154/KPC-2 Biapenem MPC64” value in [11] worked out at 1.25.

These data come from patent publication US11999759B2, “Boronic acid derivatives and therapeutic uses thereof” (Qpex Biopharma, Inc., priority 2016, dated 2024).
